# Source: US20240270821A1, “GIP/GLP1/GCG TRI-RECEPTOR AGONISTS AND USES THEREOF” (priority 2023, published 2024)
# Like-named read-outs stand apart in the source and are kept apart here. Starred links: 1 amine or outer side, 2 acyl side, 3 side chain; linkers in the order of their positions; H or OH if unused. Non-standard residues stand in square brackets, D forms with d. Groups on a side chain read outwards from the residue. No end group written: not given here. *: point of attachment. C20 diacid = O=C(O)CCCCCCCCCCCCCCCCCCC(=O)*; C18 diacid = O=C(O)CCCCCCCCCCCCCCCCC(=O)*; Phe(4-CN) = N#Cc1ccc(C[C@H](N)C(=O)O)cc1; αMePhe(2-F) = C[C@](N)(Cc1ccccc1F)C(=O)O; γGlu = O=C(O)[C@H](CCC(=O)[*:2])N[*:1]; NMeY = CN[C@@H](Cc1ccc(O)cc1)C(=O)O; αMe4Pal = C[C@](N)(Cc1ccncc1)C(=O)O; αMeY = C[C@](N)(Cc1ccc(O)cc1)C(=O)O; αMeF = C[C@](N)(Cc1ccccc1)C(=O)O; 4Pal = N[C@@H](Cc1ccncc1)C(=O)O; αMeL = CC(C)C[C@](C)(N)C(=O)O; αMeS = C[C@](N)(CO)C(=O)O; Orn = NCCC[C@H](N)C(=O)O; AEEA = NCCOCCOCC(=O)O; Aib = CC(C)(N)C(=O)O
# Legend:
# Format in all cases: cell-based
# hGLP-1R [1] = molecular target: T1, hGLP-1R (Homo sapiens, UniProt P43220); experiment: Functional cAMP activation in the presence of 0.1% casein (no HSA); conditions: read-out: Relative cAMP EC50, hGLP-1R;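 note: intracellular cAMP rise after 30 min at 37 °C read by HTRF, normalized between buffer only (0%) and maximal control ligand (100%), four-parameter variable-slope fit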
# human GcgR = human GcgR (Homo sapiens, UniProt P47871); experiment: Functional cAMP activity in the presence of 1% HSA; conditions: read-out: cAMP Rel EC50, hGcgR
# hGLP-1R [2] = molecular target: T1, hGLP-1R; experiment: Functional cAMP activity in the presence of 1% HSA; conditions: read-out: cAMP Rel EC50, hGLP-1R
# hGIPR [3] = molecular target: T2, hGIPR (Homo sapiens, UniProt P48546); experiment: Functional cAMP activity in the presence of 1% HSA; conditions: read-out: cAMP Rel EC50, hGIPR
# T2 sequence (P48546 22-466): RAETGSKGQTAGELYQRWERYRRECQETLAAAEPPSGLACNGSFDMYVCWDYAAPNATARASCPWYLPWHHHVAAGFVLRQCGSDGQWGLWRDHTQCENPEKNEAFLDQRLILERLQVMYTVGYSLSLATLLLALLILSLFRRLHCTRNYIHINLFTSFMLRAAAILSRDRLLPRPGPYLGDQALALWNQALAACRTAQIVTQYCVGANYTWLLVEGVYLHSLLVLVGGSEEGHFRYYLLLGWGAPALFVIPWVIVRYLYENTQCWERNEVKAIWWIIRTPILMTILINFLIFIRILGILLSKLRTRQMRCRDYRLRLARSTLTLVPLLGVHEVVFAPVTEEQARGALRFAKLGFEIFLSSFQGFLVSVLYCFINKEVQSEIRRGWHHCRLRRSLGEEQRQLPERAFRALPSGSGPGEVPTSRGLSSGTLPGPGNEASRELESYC
# hGcgR = hGcgR (Homo sapiens, UniProt P47871); experiment: Functional cAMP activation in the presence of 0.1% casein (no HSA); conditions: read-out: Relative cAMP EC50, hGcgR;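 note: intracellular cAMP rise after 30 min at 37 °C, read by HTRF against a cAMP standard curve, scaled from buffer only (0%) to maximal control ligand response (100%)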
# hGIPR [4] = molecular target: T2, hGIPR; experiment: as above; conditions: read-out: Relative cAMP EC50, hGIPR
# [5] = in the presence of 0.1% casein (no HSA), geometric mean
# [6] = 0.1% casein, no HSA, geometric mean
# 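Throughout, for Relative cAMP EC50, hGIPR: intracellular cAMP rise after 30 min at 37 °C read by HTRF against a standard curve, scaled between buffer alone (0%) and top control ligand concentration (100%), four-parameter fit.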
# T1 sequence (P43220 24-463): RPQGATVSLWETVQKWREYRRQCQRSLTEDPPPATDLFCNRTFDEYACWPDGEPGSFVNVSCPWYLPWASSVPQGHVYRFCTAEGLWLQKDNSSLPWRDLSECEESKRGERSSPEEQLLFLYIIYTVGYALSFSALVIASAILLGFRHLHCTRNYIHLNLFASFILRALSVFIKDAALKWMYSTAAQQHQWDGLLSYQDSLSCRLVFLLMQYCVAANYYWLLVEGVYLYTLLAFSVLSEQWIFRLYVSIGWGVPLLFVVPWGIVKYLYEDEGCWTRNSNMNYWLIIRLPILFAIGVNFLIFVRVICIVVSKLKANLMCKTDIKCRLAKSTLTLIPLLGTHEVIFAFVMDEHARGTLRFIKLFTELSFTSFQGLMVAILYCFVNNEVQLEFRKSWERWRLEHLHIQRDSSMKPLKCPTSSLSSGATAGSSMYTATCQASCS
# Chain of hGcgR (P47871 26-477): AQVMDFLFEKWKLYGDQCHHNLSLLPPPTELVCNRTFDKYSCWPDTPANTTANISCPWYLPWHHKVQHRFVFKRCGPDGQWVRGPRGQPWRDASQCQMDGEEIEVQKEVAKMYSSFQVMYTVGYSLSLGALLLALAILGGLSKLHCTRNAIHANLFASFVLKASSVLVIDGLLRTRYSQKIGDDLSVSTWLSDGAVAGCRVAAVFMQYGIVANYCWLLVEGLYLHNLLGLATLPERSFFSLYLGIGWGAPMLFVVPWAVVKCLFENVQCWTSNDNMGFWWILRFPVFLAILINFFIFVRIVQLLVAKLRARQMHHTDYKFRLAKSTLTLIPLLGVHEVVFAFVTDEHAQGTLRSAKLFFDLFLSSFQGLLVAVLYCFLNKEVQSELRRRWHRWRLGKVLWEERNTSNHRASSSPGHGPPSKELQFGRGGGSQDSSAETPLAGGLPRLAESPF
# Chain of human GcgR (P47871 26-477): as above
Substance,EC50 (hGLP-1R [1]; [5]) [nM],EC50 (human GcgR) [nM],EC50 (hGLP-1R [2]) [nM],EC50 (hGIPR [3]) [nM],EC50 (hGcgR; [5]) [nM],EC50 (hGIPR [4]; [5]) [nM],EC50 (hGLP-1R [1]; [6]) [nM],EC50 (hGcgR; [6]) [nM],EC50 (hGIPR [4]; [6]) [nM],EC50 (hGLP-1R [1]) [nM],EC50 (hGcgR) [nM],EC50 (hGIPR [4]) [nM]
H-Y[Aib]QGT[αMePhe(2-F)]TSD[Phe(4-CN)]SILLDKQAQK([AEEA-γGlu-C20 diacid])AFIQYLLEGGPSSGEPPPSEG-NH2 [Example 341],1.62,2930,395,49.6,10.7,0.213,–,–,–,–,–,–
H-Y[Aib]QGT[αMePhe(2-F)]TSD[Phe(4-CN)]SILLDKQAQK([AEEA-γGlu-γGlu-C20 diacid])AFIEYLLEGGPSSGEPPPSEG-NH2 [Example 352],0.967,4020,407,34.1,16.4,0.245,–,–,–,–,–,–
H-Y[Aib]QGT[αMePhe(2-F)]TSD[Phe(4-CN)]SKLLDKIAQK([AEEA-γGlu-C20 diacid])AFIEYLIEGGPSSGAPPPSGS-NH2 [Example 363],1.47,4080,217,91.8,13.6,0.375,–,–,–,–,–,–
H-Y[Aib]QGT[αMePhe(2-F)]TSD[Phe(4-CN)]SKLLDKIAQK([AEEA-γGlu-C20 diacid])AFIEYLIEGGPSSGEPPPSGS-NH2 [Example 364],1.1,3190,260,101,10.2,0.457,–,–,–,–,–,–
H-Y[Aib]Q[dA]T[αMePhe(2-F)]TSD[4Pal]SI[αMeL]LD[Orn]K([AEEA-γGlu-C18 diacid])AQ[αMe4Pal]EFI[dE][αMeY]LIEGGPSSGAPPPSGS-NH2 [Example 1206],–,251,44.1,7.04,–,–,0.352,1.78,0.0671,–,–,–
H-Y[Aib]Q[dA]T[αMePhe(2-F)]TSD[4Pal]SI[αMeL]LD[Orn]K([AEEA-γGlu-C18 diacid])AQ[αMe4Pal]EFI[dE][αMeY]LVEGGPSSGAPPPSGS-NH2 [Example 1205],–,325,50,16.3,–,–,0.523,3.33,0.152,–,–,–
H-Y[Aib]Q[dA]T[αMePhe(2-F)]TSD[4Pal][αMeS]I[αMeL]LD[Orn]K([AEEA-γGlu-C18 diacid])AQ[Aib]EFI[dE][αMeY]LIEGGPSSGAPPPSGGGE-NH2 [Example 1223],–,472,40.7,9.25,–,–,0.337,2.61,0.0916,–,–,–
H-Y[Aib]Q[dA]T[αMePhe(2-F)]TSD[4Pal][αMeS]I[αMeL]LD[Orn]K([AEEA-γGlu-C18 diacid])AQ[Aib]EFI[dE][αMeY]LIEGGPSSGAPPPSGSE-NH2 [Example 1222],–,470,44.8,12.4,–,–,0.346,2.55,0.0858,–,–,–
H-Y[Aib]Q[dA]T[αMePhe(2-F)]TSD[4Pal][αMeS]I[αMeL]LD[Orn]K([AEEA-γGlu-C18 diacid])AQ[Aib]EFI[dE][αMeY]LVEGGPSSGAPPPSGS-NH2 [Example 1204],–,507,37.4,15.8,–,–,0.338,3.5,0.21,–,–,–
H-Y[Aib]Q[dA]T[αMePhe(2-F)]TSD[4Pal][αMeS]I[αMeL]LD[Orn]K([AEEA-γGlu-C18 diacid])AQ[αMe4Pal]EFI[dE][αMeY]LIEGGPSSGEPPPSGTGE-NH2 [Example 766],–,65.7,32.5,14.1,–,–,–,–,–,0.273,0.689,0.0323
H-Y[Aib]Q[dA]T[αMePhe(2-F)]TSD[4Pal][αMeS]I[αMeL]LD[Orn]K([γGlu-γGlu-C18 diacid])AQ[Aib]EFI[dE][αMeY]LIEGGPSSGAPPPSGGGE-NH2 [Example 1225],–,275,31.4,3.67,–,–,0.399,2.45,0.0531,–,–,–
H-Y[Aib]Q[dA]T[αMePhe(2-F)]TSD[4Pal][αMeS]I[αMeL]LD[Orn]K([γGlu-γGlu-C18 diacid])AQ[Aib]EFI[dE][αMeY]LIEGGPSSGAPPPSGSE-NH2 [Example 1224],–,208,28.4,3.78,–,–,0.379,2.32,0.048,–,–,–
H-[NMeY][Aib]QGTFTSD[4Pal][αMeS]Q[αMeL]LD[Orn]K([dE-γGlu-C18 diacid])AQ[αMe4Pal]QFIQ[αMeY]LIE[Aib]GPSSGAPPPSGGGE-NH2 [Example 1134],0.957,180,78.9,2.41,2.57,0.0391,–,–,–,–,–,–
H-[NMeY][Aib]QGT[αMeF]TSDYSILLDKIAAK([AEEA-AEEA-γGlu-C20 diacid])AFIEYLIEGGPSSGEPPPSEG-NH2 [Example 299],0.963,1700,380,40.2,2.54,0.137,–,–,–,–,–,–
Y[Aib]QGTFTSDFSK[αMeL]LDKK([AEEA-γGlu-C18 diacid])AQ[Aib]AFIEYLIE[Aib]GPSSGAPPPSGS-NH2 [Example 797],0.449,963,102,16.7,3.78,0.0781,–,–,–,–,–,–
Y[Aib]QGTFTSDFSK[αMeL]LDKK([AEEA-γGlu-C20 diacid])AQ[Aib]AFIEYLLEGGPSSGEPPPTEG-NH2 [Example 36],3.57,1330,1360,170,4.32,0.482,–,–,–,–,–,–
Y[Aib]QGTFTSDFSK[αMeL]LDKK([AEEA-γGlu-C20 diacid])AQ[Aib]AFIQWLLEGGPSSGAPPPSEG-NH2 [Example 39],2.13,1090,260,30.5,10.1,0.299,–,–,–,–,–,–
Y[Aib]QGTFTSDFSK[αMeL]LDKK([AEEA-γGlu-C20 diacid])AQ[Aib]AFIQYLLAGGPSSGEPPPSEG-NH2 [Example 27],2.33,1180,464,72.3,8.91,0.41,–,–,–,–,–,–
Y[Aib]QGTFTSDFS[Orn][αMeL]LDKK([AEEA-γGlu-C18 diacid])AQ[Aib]AFIEWLLEGGHSSGAPPPGGE-NH2 [Example 273],4.02,1770,516,21.8,6.96,0.243,–,–,–,–,–,–
Y[Aib]QGTFTSDFS[Orn][αMeL]LDKK([AEEA-γGlu-C18 diacid])AQ[Aib]AFIEWLLEGGHSSGEPPPSGE-NH2 [Example 124],6.14,567,801,54.7,2.92,0.344,–,–,–,–,–,–
Y[Aib]QGTFTSDFS[Orn][αMeL]LDKK([AEEA-γGlu-C18 diacid])AQ[Aib]AFIEYLIE[Aib]GPSSGAPPPSGS-NH2 [Example 796],0.602,1000,125,17.5,5.3,0.098,–,–,–,–,–,–
Y[Aib]QGTFTSDFS[Orn][αMeL]LDKK([AEEA-γGlu-γGlu-C18 diacid])AQ[Aib]AFIEYLLAGGPSSGEPPPSGS-NH2 [Example 153],7.09,1210,488,16.8,14.7,0.218,–,–,–,–,–,–
